Here are results for 21 compounds from patent US20240376084A1, “INHIBITORS OF ALPHA-HEMOLYSIN OF STAPHYLOCOCCUS AUREUS” (Helmholtz-Zentrum Fur Infektionsforschung GmbH, priority 2021, published 2024).

For assay [1], the target named is hemolysin alpha from Staphylococcus aureus (Staphylococcus aureus, UniProt P09616). The experiment in a line: cell-based.
The target of assay [2] is S. aureus Alpha hemolysin (Staphylococcus aureus, UniProt P09616). The experiment in a line: cell-based. To be noted: A549-LDH Assay activity.

pEC50, pIC50: −log10 of the molar value. Some results are limits rather than exact numbers.

Chain of S. aureus Alpha hemolysin (P09616 27-319 limits assumed): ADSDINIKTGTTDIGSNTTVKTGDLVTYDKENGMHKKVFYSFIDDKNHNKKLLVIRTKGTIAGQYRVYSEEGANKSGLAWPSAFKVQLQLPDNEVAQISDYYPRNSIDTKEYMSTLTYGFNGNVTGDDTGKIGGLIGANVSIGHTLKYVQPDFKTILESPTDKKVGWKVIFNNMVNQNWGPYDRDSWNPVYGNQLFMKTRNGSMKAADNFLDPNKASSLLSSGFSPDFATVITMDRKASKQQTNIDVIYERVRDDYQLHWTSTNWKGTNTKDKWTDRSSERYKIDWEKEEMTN
Chain of hemolysin alpha from Staphylococcus aureus (P09616 27-319 limits assumed): as above

For orientation: pIC50 means −log10 of the IC50, conventionally taken in molar units. As usually defined, the pEC50 is the negative decadic logarithm of the EC50, by convention in mol/L. A higher pEC50 goes with a low EC50. Take `Cc1cc2[nH]c(=O)c(=O)[nH]c2cc1S(=O)(=O)Nc1ccc(-c2cncnc2)c(Cl)c1` [Compound 66, N-(3-chloro-4-(pyrimidin-5-yl)phenyl)-7-methyl-2,3-dioxo-1,2,3,4-tetrahydroquinoxaline-6-sulfonamide]: in assay [1], the pIC50 was 7.00 to 7.52. The compound further gave a negative logarithm of the EC50 (pEC50) in assay [2] of 6.00 to 7.00.

For the compound `Cc1cc2[nH]c(=O)c(=O)[nH]c2cc1S(=O)(=O)Nc1ccc(-c2ccc(F)cc2)c(N2CCOCC2)c1` [Compound 250, N-[4-(4-fluorophenyl)-3-morpholino-phenyl]-7-methyl-2,3-dioxo-1,4-dihydroquinoxaline-6-sulfonamide], the pEC50 in assay [1] was 6.00 to 7.00; in assay [2] it was 5.22 to 6.00.

Take `Cc1cc2[nH]c(=O)c(=O)[nH]c2cc1S(=O)(=O)Nc1ccc(-c2ccc(C(F)(F)F)nc2)c(Cl)c1` [Compound 275, N-[3-chloro-4-[6-(trifluoromethyl)-3-pyridyl]phenyl]-7-methyl-2,3-dioxo-1,4-dihydroquinoxaline-6-sulfonamide]: the pEC50 is 6.00 to 7.00 in assay [1] and 5.22 to 6.00 in assay [2].

For the compound `Cc1cc2[nH]c(=O)c(=O)[nH]c2cc1S(=O)(=O)Nc1ccc(-c2cc[nH]c(=O)c2)c(Cl)c1` [Compound 280, N-[3-chloro-4-(2-oxo-1H-pyridin-4-yl)phenyl]-7-methyl-2,3-dioxo-1,4-dihydroquinoxaline-6-sulfonamide], the results for the negative-log EC50 (pEC50) in assay [1] and in assay [2] were 5.46 to 6.00 and 6.00 to 7.00, respectively.

With `COc1ccc(-c2ccc(NS(=O)(=O)c3cc4[nH]c(=O)c(=O)[nH]c4cc3C)cc2Cl)cc1F` [Compound 320, N-[3-chloro-4-(3-fluoro-4-methoxy-phenyl)phenyl]-7-methyl-2,3-dioxo-1,4-dihydroquinoxaline-6-sulfonamide], the pEC50 in assay [1] and in assay [2] was greater than 7.52 each time.

As for `Cc1cc2[nH]c(=O)c(=O)[nH]c2cc1S(=O)(=O)Nc1ccc(-c2ccc(F)c(C(N)=O)c2)c(C(F)(F)F)c1` [Compound 368, 2-fluoro-5-[4-[(7-methyl-2,3-dioxo-1,4-dihydroquinoxalin-6-yl)sulfonylamino]-2-(trifluoromethyl)phenyl]benzamide], the figures for the pEC50 in assay [1] and in assay [2] were 7.00 to 7.52 and 6.00 to 7.00, respectively.

Turning to `CCCc1ccc(NS(=O)(=O)c2cc3[nH]c(=O)c(=O)[nH]c3cc2F)cc1` [Compound 87, 7-fluoro-2,3-dioxo-N-(4-propylphenyl)-1,2,3,4-tetrahydroquinoxaline-6-sulfonamide], the pIC50 in assay [1] was 6.00 to 7.00. Moreover, the pEC50 in assay [2] was 7.00 to 7.52.

With `Cc1ccc(-c2c(C)cc(NS(=O)(=O)c3cc4[nH]c(=O)c(=O)[nH]c4cc3C)cc2C)s1` [Compound 70, N-(3,5-dimethyl-4-(5-methylthiophen-2-yl)phenyl)-7-methyl-2,3-dioxo-1,2,3,4-tetrahydroquinoxaline-6-sulfonamide], in assay [1], the pIC50 is 7.00 to 7.52. This compound also gave a negative logarithm of the EC50 (pEC50) in assay [2] of 6.00 to 7.00.

For `COc1ccccc1-c1ccc(NS(=O)(=O)c2cc3[nH]c(=O)c(=O)[nH]c3cc2C)cc1` [Compound 114, N-(2′-methoxy-[1,1′-biphenyl]-4-yl)-7-methyl-2,3-dioxo-1,2,3,4-tetrahydroquinoxaline-6-sulfonamide], the pIC50 in assay [1] was 6.00 to 7.00. In assay [2], the negative-log EC50 (pEC50) is 6.00 to 7.00.

With `Cc1cc2[nH]c(=O)c(=O)[nH]c2cc1S(=O)(=O)Nc1ccc(-c2ccn3ccnc3c2)c(Cl)c1` [Compound 336, N-(3-chloro-4-imidazo[1,2-a]pyridin-7-yl-phenyl)-7-methyl-2,3-dioxo-1,4-dihydroquinoxaline-6-sulfonamide], the pEC50 in assay [1] is 7.00 to 7.52; in assay [2], 6.00 to 7.00.

The compound `O=c1[nH]c2cc(Cl)c(S(=O)(=O)Nc3ccc(-c4ccc(F)c(Cl)c4)c(Cl)c3)cc2[nH]c1=O` [Compound 19, 7-chloro-N-(2,3′-dichloro-4′-fluoro-[1,1′-biphenyl]-4-yl)-2,3-dioxo-1,2,3,4-tetrahydroquinoxaline-6-sulfonamide] showed a pIC50 in assay [1] greater than 7.52. In assay [2], the pEC50 is 6.00 to 7.00.

`Cc1cc2[nH]c(=O)c(=O)[nH]c2cc1S(=O)(=O)Nc1ccc(-c2ccc3c(c2)ncn3C)c(Cl)c1` [Compound 283, N-[3-chloro-4-(1-methylbenzimidazol-5-yl)phenyl]-7-methyl-2,3-dioxo-1,4-dihydroquinoxaline-6-sulfonamide]: the negative-log EC50 (pEC50) in assay [1] and in assay [2] was 6.00 to 7.00 in each case.

With `O=c1[nH]c2cc(F)c(S(=O)(=O)Nc3ccc(-c4ccc5c(c4)NCC5)c(Cl)c3)cc2[nH]c1=O` [Compound 10, N-(3-chloro-4-(indolin-6-yl)phenyl)-7-fluoro-2,3-dioxo-1,2,3,4-tetrahydroquinoxaline-6-sulfonamide], the negative logarithm of the IC50 (pIC50) in assay [1] is greater than 7.52. Also, the pEC50 in assay [2] was 6.00 to 7.00.

`Cc1cc2[nH]c(=O)c(=O)[nH]c2cc1S(=O)(=O)Nc1cc(C)c(-c2ccco2)c(C)c1` [Compound 16, N-(4-(furan-2-yl)-3,5-dimethylphenyl)-7-methyl-2,3-dioxo-1,2,3,4-tetrahydroquinoxaline-6-sulfonamide] showed a pIC50 in assay [1] greater than 7.52. Further, the pEC50 in assay [2] was greater than 7.52.

As for `Cc1cc2[nH]c(=O)c(=O)[nH]c2cc1S(=O)(=O)Nc1cc(Cl)c(-c2cccc(Cl)c2)cn1` [Compound 210, N-(4-chloro-5-(3-chlorophenyl)pyridin-2-yl)-7-methyl-2,3-dioxo-1,2,3,4-tetrahydroquinoxaline-6-sulfonamide], the pEC50 is 7.00 to 7.52 in assay [1] and 6.00 to 7.00 in assay [2].

The compound `O=c1[nH]c2cc(Cl)c(S(=O)(=O)Nc3ccc(-c4cccc(Cl)c4)c(Cl)c3)cc2[nH]c1=O` [Compound 35, 7-chloro-N-(2,3′-dichloro-[1,1′-biphenyl]-4-yl)-2,3-dioxo-1,2,3,4-tetrahydroquinoxaline-6-sulfonamide] gave a pIC50 in assay [1] greater than 7.52. The negative logarithm of the EC50 (pEC50) in assay [2] is 6.00 to 7.00.

On to `Cc1nc2ccc(-c3ccc(NS(=O)(=O)c4cc5[nH]c(=O)c(=O)[nH]c5cc4C)cc3Cl)cc2o1` [Compound 269, N-[3-chloro-4-(2-methyl-1,3-benzoxazol-6-yl)phenyl]-7-methyl-2,3-dioxo-1,4-dihydroquinoxaline-6-sulfonamide], for which the pEC50 in assay [1] and in assay [2] was greater than 7.52 in each case.

`Cc1cc2[nH]c(=O)c(=O)[nH]c2cc1S(=O)(=O)Nc1ccc(-c2ccc(Cl)cc2)c(Cl)c1` [Compound 8, N-(2,4′-dichloro-[1,1′-biphenyl]-4-yl)-7-methyl-2,3-dioxo-1,2,3,4-tetrahydroquinoxaline-6-sulfonamide] had a negative logarithm of the IC50 (pIC50) in assay [1] greater than 7.52. The same compound showed a pEC50 in assay [2] of 6.00 to 7.00.

Turning to `Cc1cc2[nH]c(=O)c(=O)[nH]c2cc1S(=O)(=O)Nc1cc(C)c(-c2ccccc2)c(C)c1` [Compound 73, N-(2,6-dimethyl-[1,1′-biphenyl]-4-yl)-7-methyl-2,3-dioxo-1,2,3,4-tetrahydroquinoxaline-6-sulfonamide], the negative logarithm of the IC50 (pIC50) in assay [1] was 6.00 to 7.00. Also, the pEC50 in assay [2] was 6.00 to 7.00.

On to `Cc1cc2[nH]c(=O)c(=O)[nH]c2cc1S(=O)(=O)Nc1ccc(C2CCOCC2)cc1` [Compound 304, 7-methyl-2,3-dioxo-N-(4-tetrahydropyran-4-ylphenyl)-1,4-dihydroquinoxaline-6-sulfonamide], for which the values for the pEC50 in assay [1] and in assay [2] were 5.46 to 6.00 and 6.00 to 7.00, respectively.

Compound `O=c1[nH]c2cc(F)c(S(=O)(=O)Nc3ccc(-c4cccnc4)c(Cl)c3)cc2[nH]c1=O` [Compound 99, N-(3-chloro-4-(pyridin-3-yl)phenyl)-7-fluoro-2,3-dioxo-1,2,3,4-tetrahydroquinoxaline-6-sulfonamide] gave a pIC50 in assay [1] of 6.00 to 7.00. In assay [2], this compound gave a negative-log EC50 (pEC50) of 5.22 to 6.00.
